Laboratory results reported in patent publication US7179616B1, “Method for detecting phosphatidylserine on the surface of cells” (University of Notre Dame du Lac, priority 2002, dated 2007).
“Also recorded” adds a separate entry of the source.

Assays:
[1] = test system: apoptotic cells; conditions: cited from earlier work
[2] = test system: vesicle membranes containing anionic phospholipids (phosphatidylserine, phosphatidylglycerol, phosphatidic acid); assay: Fluorescence response to vesicle membranes containing anionic phospholipids; type: binding; conditions: more than a few percent of phosphatidylserine, phosphatidylglycerol or phosphatidic acid
Protocol: (§1) Unilamellar vesicles were prepared by initial hydration of a dried lipid film followed by repeated extrusion through polycarbonate membranes having a pore size of 100 nm. Aliquots of vesicle suspension were added to a solution of PSS-380 (1 μM, 3 mL) in HEPES buffer (10 mM) at pH 7.2. The fluorescence emission intensity at 440 nm (ex 380 nm) was measured 15 seconds after the addition of each aliquot.

[3] = test system: Jurkat cells; assay: Single-well bulk fluorescence assay for apoptosis; type: cell-based; conditions: apoptosis induced by camptothecin
Protocol: The ability of PSS-380 to detect cell apoptosis was also examined in the present invention. This was approached in three ways. First, it was assessed whether PSS-380 could be used in a single-well, bulk fluorescence assay for apoptosis. […] Thus, cell apoptosis may be detected qualitatively using PSS-380 in a simple, single-well, bulk fluorecence assay.

[4] = 31P NMR titration with DHPS and DHPC in water; type: binding
Source text: (§2) Although the fluorescence emission of PSS-380 increases in the presence of vesicles containing PS, it is unchanged if the PS is monodispersed. […] Titration of PSS-380 with increasing amounts of a DHPC:DHPS (1:1) mixture results in no change in fluorescence intensity. Further evidence that PSS-380 has a weak affinity for DHPS and DHPC in water was gained from ^31P NMR titration experiments. The ^31P signals for phospholipid head groups hardly move upon addition of PSS-380. This is in line with previous studies with PSS-380 showing that it has low affinity for neutral or mono-anionic molecules in water, Ojida, A., Mito-Oka, Y., Inoue, M. A. & Hamachi, I. (2002) J. Am. Chem. Soc., 124, 6256–6258, the entire contents and disclosure of which is hereby incorporated by reference.

[5] = test system: erythrocytes; assay: Erythrocyte studies, normal versus scrambled erythrocytes; type: cell-based, human; conditions: PSS-380 1 μM, 5 mM TES, 150 mM NaCl, pH 7.4, 4×10^9 erythrocytes
Protocol: Aliquots (10 μL) containing 4.0×10^9 of normal or “scrambled” erythrocytes were added to a solution of PSS-380 (1 μM, 3 mL) in 5 mM TES, 150 mM NaCl, pH 7.4. The erythrocytes were prepared in the following way. Fresh human blood was collected in ice-cold phosphate-buffered-saline (PBS) containing 10 U/mL of heparin. The samples were centrifuged and the supernatant and the top 10% of the erythrocytes were removed. The wash was repeated two more times. An equal volume of PBS was added to the remaining pellet. The desired number of cells was removed, centrifuged and the supernatant discarded. Four volumes of lysis buffer (0.1×PBS containing 0.1 mM EGTA, 1 mM MgCl2, and 1% BSA, plus 1 mM CaCl2 for “scrambled” erythrocytes only) were added to the pellet. The suspensions were vortexed and the lysed cells were placed on ice. After 2 minutes, the cells were resealed by adding 0.4 volumes (relative to the size of the original pellet) of 10×PBS. The tubes were gently inverted and warmed to 37° C. After 30 minutes, 100 volumes of PBS were added, then the cells were centrifuged into pellets, washed three times, and resuspended in TES buffer for use.

[6] = test system: Jurkat cells; assay: Toxicity of PSS-380, flow cytometry with PI; type: cell-based; conditions: 100 μM, one hour
Protocol: Tests were performed to establish the toxicity of PSS-380.

[7] = Fluorescence titration with monodispersed phospholipids; type: binding; conditions: DHPC:DHPS (1:1) titration, micromolar concentrations
Source text: as §2

[8] = test system: 100% POPC vesicles; assay: Vesicle fluorescence titration of PSS-380, zwitterionic POPC vesicles; type: binding
Protocol: as §1

[9] = in water; cited from earlier work
[10] = test system: POPC:POPG (50:50) vesicles; assay: Vesicle fluorescence titration of PSS-380, POPC:POPG vesicles; type: binding; conditions: 50:50, PSS-380 1 μM, HEPES 10 mM, pH 7.2, ex 380, em 440 nm
Protocol: as §1

[11] = test system: POPC:POPA (50:50) vesicles; assay: Vesicle fluorescence titration of PSS-380, POPC:POPA vesicles; type: binding; conditions: 50:50, PSS-380 1 μM, HEPES 10 mM, pH 7.2, ex 380, em 440 nm
Protocol: as §1

[12] = test system: apoptotic cells; assay: Cell staining and fluorescence microscopy of apoptotic cells; type: cell-based
Protocol: Jurkat E6-1 cells were grown in RPMI 1640 growth media supplemented with 10% fetal bovine serum. MCF-7 cells were grown in DMEM growth media with 10% fetal bovine serum. […] Suspended cells (Jurkat) were grown to a density of 1×10^6 cells/mL. Before staining with annexin V-FITC, the growth media was changed to a binding buffer containing 5 mM TES/145 mM NaCl, 2.5 mM CaCl2, at pH 7.4. The cells were incubated with annexin V-FITC (10 μL of Pharmingen stock solution per mL cell suspension), 7AAD (5 μL of 50 μg/mL stock solution per mL cell suspension), and PSS-380 (20 μL of 1 mM stock solution per mL cell suspension) for 15 minutes at 37° C. The incubation mixture was aspirated and changed to a buffer containing 5 mM TES, 145 mM NaCl, pH 7.4. At this point, the Jurkat cell suspensions were added to 16-well chamber-slides. Cells were observed directly on an Axiovert S100 TV microscope (Carl Zeiss) equipped with filter sets DAPI/Hoechst/[…]/Bodipy/Fluo3/DiO, Cy3 (Chroma). Pictures were taken using a black and white digital camera and colored afterwards using Photoshop 6.0 software package (Adobe). Fluorescence microscopy was also used to evaluate if PSS-380 could identify sub-populations of live, apoptotic, and dead cells. Cell apoptosis was induced by treatment with camptothecin, or the calcium ionophore A23187. The drug-treated cells and untreated control cells were subsequently stained with a mixture of annexin V-FITC (green), PSS-380 (blue) and 7AAD (red). FIGS. 5, 6 and 7 display typical microscopic images produced using this method. Live cells are not stained by any of the dyes; whereas, staining by 7AAD identifies dead cells with permeable membranes. Cells that are only stained by annexin V-FITC or PSS-380 are defined as apoptotic. The microscopic images show a slight statistical variation in cell staining, due in part to the fact that PSS-380 and annexin V-FITC are competing for the same cell surface binding sites. If the staining experiments are repeated using either annexin V or PSS-380 alone, the emission from positive cells is more homogeneous and with similar intensity.

[13] = test system: POPC:POPS vesicles; assay: Vesicle fluorescence titration of PSS-380, POPC:POPS vesicles; type: binding; conditions: HEPES 10 mM
Protocol: as §1

[14] = test system: membranes that are rich in PS; conditions: cited from earlier work

CCCCN1C(=O)C(=C/C=C/C=C2\Oc3ccccc3N2CCCS(=O)(=O)[O-])C(=O)N(CCCC)C1=S.[Na+] [MC540]
signal difference between normal cells and apoptotic cells [1]: about five fold

anthracene zinc dipicolylamine [AZD, reference compound]
change in fluorescence intensity with vesicle membranes containing anionic phospholipids [2]: hardly changed

O=[N+]([O-])[O-].O=[N+]([O-])[O-].O=[N+]([O-])[O-].O=[N+]([O-])[O-].[Zn+2].[Zn+2].c1ccc(CN(Cc2ccccn2)Cc2c3ccccc3c(CN(Cc3ccccn3)Cc3ccccn3)c3ccccc23)nc1 [PSS-380]
emission in presence of apoptotic Jurkat cells versus equal number of live cells [3]: twice as intense (±5%)
movement of 31P signals for phospholipid head groups upon addition of sensor [4]: hardly move
fluorescence induced by scrambled erythrocytes compared to equal number of normal erythrocytes [5]: much higher
change in cell viability, judged by PI staining [6]: no change in cell viability
change in fluorescence intensity with monodispersed phospholipids [7]: not affected; also recorded: no change
affinity with membranes composed only of zwitterionic phospholipids [8]: no apparent affinity
change in fluorescence after addition of zwitterionic POPC vesicles ([8]; PSS-380 1 μM, HEPES 10 mM, pH 7.2, ex 380, em 440 nm): not affected; also recorded: No change
association constant for phosphorylated compounds like phosphotyrosine [9]: around 10^7 M^−1
change in fluorescence intensity, POPC:POPG vesicles [10]: eleven-fold increase
change in fluorescence intensity, POPC:POPA vesicles [11]: six-fold increase
effect of the presence of Ca^2+ on binding to apoptotic cells [12]: not noticeably inhibited
speed of binding to apoptotic cells [12]: almost instantaneous
staining after treatment with 10 mM EDTA ([12]; 10 mM EDTA): fades rapidly
staining intensity compared with annexin V ([12]; microscopy data): more intense than annexin V
change in fluorescence intensity with vesicle membranes containing anionic phospholipids [2]: increases up to ten-fold
change in fluorescence intensity, POPC:POPS 50:50 vesicles ([13]; 50:50, PSS-380 1 μM, pH 7.2, ex 380, em 440 nm): ten-fold increase
change in fluorescence emission, vesicles containing 5 mol % of POPS ([13]; POPC:POPS 95:5, PSS-380 1 μM, pH 7.2): four-fold rise

CCCCN(CCCC)c1ccc(/C=C/c2cc[n+](CCC[N+](CC)(CC)CC)cc2)cc1.[Br-].[Br-] [FM1-43]
signal difference between normal cells and apoptotic cells [1]: 6–10 fold

annexin V: 35 Kd PS-binding protein
signal difference between normal cells and apoptotic cells [1]: up to 100 fold
incubation time required for complete binding [14]: up to one hour
association constant for binding to membranes that are rich in PS ([14]; in the presence of sufficient calcium): around 10^8 M^−1
